From patent publication US10016358B2 (ROLF KULLGREN AB, priority 2008, dated 2018)
Structures can show the parent of a compound that is named as a salt.

How the values were obtained:
Type in all cases: cell-based
C. albicans = assay: Fungicidal effect of lactate compared with HCl at identical pH (FIG. 1); conditions: 5% solution at pH 3.8; incubation at 37 C for two hours; control 1,000,000CFU
E.coli O6K5 = assay: Minimum microbicidal concentration of lactate (microbicidal assay); conditions: for Remaining viability: 2.5 h at 37° C.
Experimental: (§1) E.coli O6K5 (a urinary tract infection pathogen), a group B Streptococcus strain (GBS) CCUG 49086, and C.albicans ATCC 64549, The microorganisms were incubated over night in BHI medium. Thereafter the suspensions were transferred to new tubes and incubated for 2.5 h at 37° C. The cells were washed and suspended in diluted BHI ( 1/100, BHIdll). The suspensions were measured spectrophotometrically at 590 nm and the concentrations of the microrganisms adjusted according to standard curves. The bacterial suspensions were adjusted to 2×10^8CFU per ml and C.albicans
(§2) One lactate suppository was dissolved in 0.5 ml of distilled water. A lactate solution of 11.5% was obtained. This solution was used in the microbicidal assay.
(§3) The lactate solution was serially diluted in BHIdll by twofold steps in tubes (100 μl piper tube). The bacterial and yeast cell solutions were added in 10 μl volumes to give a final concentration of approximately 2×10^7 and 1×10^5 cells per ml respectively. The tubes were incubated at 37° C. on a shaker for 2.5 h. Five ul were taken from each tube and added as a drop (in triplicate) onto a blood agar plate and incubated over night at 37° C. The killing was expressed as remaining colony forming units (CFU) in relation to the inoculum. The lower limit for detection of microorganisms was 200 CFU/ml. The viability of any remaining microorganism in the tubes was checked by diluting the remaining solutions to 1/5 with growth medium, resulting in a 2.3% lactate solution or less, and incubation of the tubes over night at 37 C. The next day, once again 5 μl of the solutions were applied as drops onto blood agar plates and incubated at 37° C. over night.

[1] = tested on: group B Streptococcus strain (GBS) CCUG 49086; assay: as above; conditions: for Remaining viability: 2.5 h at 37° C.; for killed: after 2.5 h of incubation
Experimental: as §1, §2, §3

C.albicans ATCC 64549 = assay: as above; conditions: for killed: after 2.5 h of incubation; for Remaining viability: 2.5 h at 37° C.
Experimental: as §1, §2, §3

Cl [HCl, reference compound]
viable colony forming units of C. albicans (C. albicans): 100,000 CFU

CC(O)C(=O)O (stereo not shown) [lactate]
lactate concentration that effectively killed the pathogen (E.coli O6K5; 2.5 h incubation): ≥ 5.8%
Remaining viability (E.coli O6K5; lactate concentration 0.35%): 0
Remaining viability (E.coli O6K5; lactate concentration 0.7%): 0
Remaining viability (E.coli O6K5; lactate concentration 1.4%): 0
Remaining viability (E.coli O6K5; lactate concentration 2.9%): 0
Remaining viability (E.coli O6K5; lactate concentration 5.8%): 0
Remaining viability (E.coli O6K5; lactate concentration 11.5%): 0
killed (E.coli O6K5; lowest concentration of lactate tested (0.35%), after 2.5 h of incubation): 100%
lactate concentration that effectively killed the pathogen ([1]; 2.5 h incubation): ≥ 5.8%
Remaining viability ([1]; lactate concentration 0.35%): + (no distinguishable colonies (>50 CFU per area = >10^4 CFU per ml))
Remaining viability ([1]; lactate concentration 0.7%): + (no distinguishable colonies (>50 CFU per area = >10^4 CFU per ml))
Remaining viability ([1]; lactate concentration 1.4%): + (no distinguishable colonies (>50 CFU per area = >10^4 CFU per ml))
Remaining viability ([1]; lactate concentration 2.9%): + (no distinguishable colonies (>50 CFU per area = >10^4 CFU per ml))
Remaining viability ([1]; lactate concentration 5.8%): 0
killed ([1]; lactate concentration 5.8%): 100%
Remaining viability ([1]; lactate concentration 11.5%): 0
killed ([1]; lactate concentration 11.5%): 100%
killed (C.albicans ATCC 64549; 5.8% of lactate): 99.4%
killed (C.albicans ATCC 64549; 11.5% of lactate): 100%
lactate concentration that effectively killed the pathogen (C.albicans ATCC 64549; 2.5 h incubation): ≥ 5.8%
Remaining viability (C.albicans ATCC 64549; lactate concentration 0.35%): + (no distinguishable colonies (>50 CFU per area = >10^4 CFU per ml))
Remaining viability (C.albicans ATCC 64549; lactate concentration 0.7%): + (no distinguishable colonies (>50 CFU per area = >10^4 CFU per ml))
Remaining viability (C.albicans ATCC 64549; lactate concentration 1.4%): + (no distinguishable colonies (>50 CFU per area = >10^4 CFU per ml))
Remaining viability (C.albicans ATCC 64549; lactate concentration 2.9%): + (no distinguishable colonies (>50 CFU per area = >10^4 CFU per ml))
Remaining viability (C.albicans ATCC 64549; lactate concentration 5.8%): 0.6 ± 0.4^¤ percentage of the inoculum
Remaining viability (C.albicans ATCC 64549; lactate concentration 11.5%): 0
viable colony forming units of C. albicans (C. albicans): < 100 CFU
